From patent publication US12655125B2 (SIRONAX LTD., priority 2020, dated 2026)

System: HT-29 cells
Assay: HT29 Cells 0FBS Assay In Vitro (TNF-α/SMAC mimetic/zVAD-FMK induced necroptosis, CellTiter-Glo cell viability)
Assay type: cell-based
Settings: Homo sapiens; HT-29 cells, FBS free medium, TNF-α (10 ng/ml), SMAC mimetic (6 uM), zVAD-FMK (10 μM), 20 hours; geometric mean EC50; read-out: Cell activity (EC50) of Compounds 1-116
In short: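 HT-29 cells (5,000/well, seeded overnight) in serum-free McCoy's 5A were stimulated with TNF-α 10 ng/ml, SMAC mimetic 6 μM and zVAD-FMK 10 μM to induce necroptosis. Compound added as 10-point 3-fold series for 20 h at 37° C. CellTiter-Glo luminescence gives viability; EC50 is geometric mean of duplicate dose-responses.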

Question: Cn1ncc(Cl)c1-c1cc(OC2CN(C(=O)N3N=CC[C@H]3c3cc(F)cc(F)c3)C2)c(F)cn1 [compound 83, (S)-(3-((2-(4-chloro-1-methyl-1H-pyrazol-5-yl)-5-fluoropyridin-4-yl)oxy)azetidin-1-yl)(5-(3,5-difluorophenyl)-4,5-dihydro-1H-pyrazol-1-yl)methanone] was tested. Which EC50 did it give?
Answer: The EC50 was 0.1 to 100 nM.

Question: Which EC50 does the source give for Cn1ncc(Cl)c1-c1ncc(F)c(OC2CN(C(=O)N3N=CC[C@H]3c3cc(F)cc(F)c3)C2)n1 [compound 84, (S)-(3-((2-(4-chloro-1-methyl-1H-pyrazol-5-yl)-5-fluoropyrimidin-4-yl)oxy)azetidin-1-yl)(5-(3,5-difluorophenyl)-4,5-dihydro-1H-pyrazol-1-yl)methanone] here?
Answer: Its EC50 is 0.1 to 100 nM.

Question: Cc1n[nH]cc1-c1cc(OC2CN(C(=O)N3N=CC[C@H]3c3cc(F)cc(F)c3)C2)c(F)cn1 [compound 85, (S)-(5-(3,5-difluorophenyl)-4,5-dihydro-1H-pyrazol-1-yl)(3-((5-fluoro-2-(3-methyl-1H-pyrazol-4-yl)pyridin-4-yl)oxy)azetidin-1-yl)methanone] was tested. Which EC50 did it give?
Answer: The EC50 was 0.1 to 100 nM.

Question: COCCn1cc(-c2cc(OC3CN(C(=O)N4N=CC[C@H]4c4cc(F)cc(F)c4)C3)c(F)cn2)c(C)n1 [compound 86, (S)-(5-(3,5-difluorophenyl)-4,5-dihydro-1H-pyrazol-1-yl)(3-((5-fluoro-2-(1-(2-methoxyethyl)-3-methyl-1H-pyrazol-4-yl)pyridin-4-yl)oxy)azetidin-1-yl)methanone] was tested. Which EC50 did it give?
Answer: Its EC50 is 0.1 to 100 nM.

Question: How did the EC50 turn out when O=C(N1CC(Oc2nc(-c3ccn[nH]3)ncc2F)C1)N1N=CC[C@H]1c1cc(F)cc(F)c1 [compound 87, (S)-(5-(3,5-difluorophenyl)-4,5-dihydro-1H-pyrazol-1-yl)(3-((5-fluoro-2-(1H-pyrazol-5-yl)pyrimidin-4-yl)oxy)azetidin-1-yl)methanone] was run?
Answer: Its EC50 is 0.1 to 100 nM.

Question: For NC(=O)Cn1nccc1-c1ncc(F)c(OC2CN(C(=O)N3N=CC[C@H]3c3cc(F)cc(F)c3)C2)n1 [compound 88, (S)-2-(5-(4-((1-(5-(3,5-difluorophenyl)-4,5-dihydro-1H-pyrazole-1-carbonyl)azetidin-3-yl)oxy)-5-fluoropyrimidin-2-yl)-1H-pyrazol-1-yl)acetamide], which EC50 is on record?
Answer: Its EC50 is 100 to 1000 nM.

Question: NC(=O)Cn1ccc(-c2ncc(F)c(OC3CN(C(=O)N4N=CC[C@H]4c4cc(F)cc(F)c4)C3)n2)n1 [compound 89, (S)-2-(3-(4-((1-(5-(3,5-difluorophenyl)-4,5-dihydro-1H-pyrazole-1-carbonyl)azetidin-3-yl)oxy)-5-fluoropyrimidin-2-yl)-1H-pyrazol-1-yl)acetamide] was tested. Which EC50 did it give?
Answer: The EC50 was 100 to 1000 nM.

Question: Cc1[nH]ncc1-c1ncc(F)c(OC2CN(C(=O)N3N=CC[C@H]3c3cc(F)cc(F)c3)C2)n1 [compound 90, (S)-(5-(3,5-difluorophenyl)-4,5-dihydro-1H-pyrazol-1-yl)(3-((5-fluoro-2-(5-methyl-1H-pyrazol-4-yl)pyrimidin-4-yl)oxy)azetidin-1-yl)methanone] was tested. Which EC50 did it give?
Answer: Its EC50 is 0.1 to 100 nM.

Question: Cc1n[nH]c(C)c1-c1ncc(F)c(OC2CN(C(=O)N3N=CC[C@H]3c3cc(F)cc(F)c3)C2)n1 [compound 91, (S)-(5-(3,5-difluorophenyl)-4,5-dihydro-1H-pyrazol-1-yl)(3-((2-(3,5-dimethyl-1H-pyrazol-4-yl)-5-fluoropyrimidin-4-yl)oxy)azetidin-1-yl)methanone] was tested. Which EC50 did it give?
Answer: Its EC50 is 0.1 to 100 nM.

Question: With Cc1n[nH]c(C)c1-c1cc(OC2CN(C(=O)N3N=CC[C@H]3c3cc(F)cc(F)c3)C2)c(F)cn1 [compound 92, (S)-(5-(3,5-difluorophenyl)-4,5-dihydro-1H-pyrazol-1-yl)(3-((2-(3,5-dimethyl-1H-pyrazol-4-yl)-5-fluoropyridin-4-yl)oxy)azetidin-1-yl)methanone] as the molecule, how does the EC50 read?
Answer: Its EC50 is 0.1 to 100 nM.

Question: COCCn1nc(C)c(-c2cc(OC3CN(C(=O)N4N=CC[C@H]4c4cc(F)cc(F)c4)C3)c(F)cn2)c1C [compound 93, (S)-(5-(3,5-difluorophenyl)-4,5-dihydro-1H-pyrazol-1-yl)(3-((5-fluoro-2-(1-(2-methoxyethyl)-3,5-dimethyl-1H-pyrazol-4-yl)pyridin-4-yl)oxy)azetidin-1-yl)methanone] was tested. Which EC50 did it give?
Answer: Its EC50 is 0.1 to 100 nM.

Question: With Cc1nn(CC(N)=O)c(C)c1-c1cc(OC2CN(C(=O)N3N=CC[C@H]3c3cc(F)cc(F)c3)C2)c(F)cn1 [compound 94, (S)-2-(4-(4-((1-(5-(3,5-difluorophenyl)-4,5-dihydro-1H-pyrazole-1-carbonyl)azetidin-3-yl)oxy)-5-fluoropyridin-2-yl)-3,5-dimethyl-1H-pyrazol-1-yl)acetamide] as the molecule, how does the EC50 read?
Answer: The EC50 was 0.1 to 100 nM.

Question: With Cc1nn(CC(=O)N(C)C)c(C)c1-c1cc(OC2CN(C(=O)N3N=CC[C@H]3c3cc(F)cc(F)c3)C2)c(F)cn1 [compound 95, (S)-2-(4-(4-((1-(5-(3,5-difluorophenyl)-4,5-dihydro-1H-pyrazole-1-carbonyl)azetidin-3-yl)oxy)-5-fluoropyridin-2-yl)-3,5-dimethyl-1H-pyrazol-1-yl)-N,N-dimethylacetamide] as the molecule, how does the EC50 read?
Answer: Its EC50 is 0.1 to 100 nM.

Question: How did the EC50 turn out when Cc1nn(CC(=O)N2CCOCC2)c(C)c1-c1cc(OC2CN(C(=O)N3N=CC[C@H]3c3cc(F)cc(F)c3)C2)c(F)cn1 [compound 96, (S)-2-(4-(4-((1-(5-(3,5-difluorophenyl)-4,5-dihydro-1H-pyrazole-1-carbonyl)azetidin-3-yl)oxy)-5-fluoropyridin-2-yl)-3,5-dimethyl-1H-pyrazol-1-yl)-1-morpholinoethan-1-one] was run?
Answer: The EC50 was 0.1 to 100 nM.

Question: For CNC(=O)Cn1nc(C)c(-c2cc(OC3CN(C(=O)N4N=CC[C@H]4c4cc(F)cc(F)c4)C3)c(F)cn2)c1C [compound 97, (S)-2-(4-(4-((1-(5-(3,5-difluorophenyl)-4,5-dihydro-1H-pyrazole-1-carbonyl)azetidin-3-yl)oxy)-5-fluoropyridin-2-yl)-3,5-dimethyl-1H-pyrazol-1-yl)-N-methylacetamide], which EC50 is on record?
Answer: The EC50 was 0.1 to 100 nM.

Question: Which EC50 does the source give for CNC(=O)Cn1nc(C)c(-c2ncc(F)c(OC3CN(C(=O)N4N=CC[C@H]4c4cc(F)cc(F)c4)C3)n2)c1C [compound 98, (S)-2-(4-(4-((1-(5-(3,5-difluorophenyl)-4,5-dihydro-1H-pyrazole-1-carbonyl)azetidin-3-yl)oxy)-5-fluoropyrimidin-2-yl)-3,5-dimethyl-1H-pyrazol-1-yl)-N-methylacetamide] here?
Answer: Its EC50 is 0.1 to 100 nM.

Question: For Cc1nn(CC(N)=O)c(C)c1-c1ncc(F)c(OC2CN(C(=O)N3N=CC[C@H]3c3cc(F)cc(F)c3)C2)n1 [compound 99, (S)-2-(4-(4-((1-(5-(3,5-difluorophenyl)-4,5-dihydro-1H-pyrazole-1-carbonyl)azetidin-3-yl)oxy)-5-fluoropyrimidin-2-yl)-3,5-dimethyl-1H-pyrazol-1-yl)acetamide], which EC50 is on record?
Answer: Its EC50 is 0.1 to 100 nM.

Question: How did the EC50 turn out when Cc1nn(CC(=O)N(C)C)c(C)c1-c1ncc(F)c(OC2CN(C(=O)N3N=CC[C@H]3c3cc(F)cc(F)c3)C2)n1 [compound 100, (S)-2-(4-(4-((1-(5-(3,5-difluorophenyl)-4,5-dihydro-1H-pyrazole-1-carbonyl)azetidin-3-yl)oxy)-5-fluoropyrimidin-2-yl)-3,5-dimethyl-1H-pyrazol-1-yl)-N,N-dimethylacetamide] was run?
Answer: The EC50 was 0.1 to 100 nM.

Question: For Cc1c(N)nn(C)c1-c1cc(OC2CN(C(=O)N3N=CC[C@H]3c3cc(F)cc(F)c3)C2)c(F)cn1 [compound 101, (S)-(3-((2-(3-amino-1,4-dimethyl-11H-pyrazol-5-yl)-5-fluoropyridin-4-yl)oxy)azetidin-1-yl)(5-(3,5-difluorophenyl)-4,5-dihydro-1H-pyrazol-1-yl)methanone], which EC50 is on record?
Answer: The EC50 was 0.1 to 100 nM.

Question: For Cc1cccn1-c1ncc(F)c(OC2CN(C(=O)N3N=CC[C@H]3c3cc(F)cc(F)c3)C2)n1 [compound 102, (S)-(5-(3,5-difluorophenyl)-4,5-dihydro-1H-pyrazol-1-yl)(3-((5-fluoro-2-(2-methyl-1H-pyrrol-1-yl)pyrimidin-4-yl)oxy)azetidin-1-yl)methanone], which EC50 is on record?
Answer: Its EC50 is 0.1 to 100 nM.

Question: How did the EC50 turn out when Cc1nc(C)n(-c2ncc(F)c(OC3CN(C(=O)N4N=CC[C@H]4c4cc(F)cc(F)c4)C3)n2)n1 [compound 103, (S)-(5-(3,5-difluorophenyl)-4,5-dihydro-1H-pyrazol-1-yl)(3-((2-(3,5-dimethyl-1H-1,2,4-triazol-1-yl)-5-fluoropyrimidin-4-yl)oxy)azetidin-1-yl)methanone] was run?
Answer: Its EC50 is 0.1 to 100 nM.

Question: How did the EC50 turn out when Cc1nc(C)n(-c2cc(OC3CN(C(=O)N4N=CC[C@H]4c4cc(F)cc(F)c4)C3)c(F)cn2)n1 [compound 104, (S)-(5-(3,5-difluorophenyl)-4,5-dihydro-1H-pyrazol-1-yl)(3-((2-(3,5-dimethyl-1H-1,2,4-triazol-1-yl)-5-fluoropyridin-4-yl)oxy)azetidin-1-yl)methanone] was run?
Answer: Its EC50 is 0.1 to 100 nM.

Question: Which EC50 does the source give for Cc1nccn1-c1ncc(F)c(OC2CN(C(=O)N3N=CC[C@H]3c3cc(F)cc(F)c3)C2)n1 [compound 105, (S)-(5-(3,5-difluorophenyl)-4,5-dihydro-1H-pyrazol-1-yl)(3-((5-fluoro-2-(2-methyl-1H-imidazol-1-yl)pyrimidin-4-yl)oxy)azetidin-1-yl)methanone] here?
Answer: Its EC50 is 0.1 to 100 nM.

Question: Which EC50 does the source give for N#Cc1cccn1-c1ncc(F)c(OC2CN(C(=O)N3N=CC[C@H]3c3cc(F)cc(F)c3)C2)n1 [compound 106, (S)-1-(4-((1-(5-(3,5-difluorophenyl)-4,5-dihydro-1H-pyrazole-1-carbonyl)azetidin-3-yl)oxy)-5-fluoropyrimidin-2-yl)-1H-pyrrole-2-carbonitrile] here?
Answer: The EC50 was 0.1 to 100 nM.

Question: With NC(=O)c1cccn1-c1ncc(F)c(OC2CN(C(=O)N3N=CC[C@H]3c3cc(F)cc(F)c3)C2)n1 [compound 107, (S)-1-(4-((1-(5-(3,5-difluorophenyl)-4,5-dihydro-1H-pyrazole-1-carbonyl)azetidin-3-yl)oxy)-5-fluoropyrimidin-2-yl)-1H-pyrrole-2-carboxamide] as the molecule, how does the EC50 read?
Answer: Its EC50 is 0.1 to 100 nM.

Question: For Cc1nn(-c2cc(OC3CN(C(=O)N4N=CC[C@H]4c4cc(F)cc(F)c4)C3)c(F)cn2)c(C)c1[N+](=O)[O-] [compound 108, (S)-(5-(3,5-difluorophenyl)-4,5-dihydro-1H-pyrazol-1-yl)(3-((2-(3,5-dimethyl-4-nitro-1H-pyrazol-1-yl)-5-fluoropyridin-4-yl)oxy)azetidin-1-yl)methanone], which EC50 is on record?
Answer: The EC50 was 0.1 to 100 nM.
